{"source": "patent US9675592B2", "about": "“Methods and compositions for bacteria infections” (priority 2013, dated 2017)", "key": {"[1]": {"target": "cytoplasmic domain of VraS (VraS-C) (Staphylococcus aureus, UniProt Q99SZ7)", "sequence (Q99SZ7 70-347)": "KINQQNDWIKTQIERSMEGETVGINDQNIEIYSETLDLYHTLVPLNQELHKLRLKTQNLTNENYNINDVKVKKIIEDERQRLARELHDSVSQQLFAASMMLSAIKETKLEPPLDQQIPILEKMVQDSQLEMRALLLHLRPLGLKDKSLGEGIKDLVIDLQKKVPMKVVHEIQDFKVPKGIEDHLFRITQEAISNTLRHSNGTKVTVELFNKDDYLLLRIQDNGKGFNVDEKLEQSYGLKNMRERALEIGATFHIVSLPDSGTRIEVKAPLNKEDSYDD", "assay": "biochemical", "format": "binding"}, "[2]": {"target": "PurC (unrelated protein, control) (Bacillus anthracis, UniProt Q81ZH5)", "sequence (Q81ZH5 whole entry, looked up)": "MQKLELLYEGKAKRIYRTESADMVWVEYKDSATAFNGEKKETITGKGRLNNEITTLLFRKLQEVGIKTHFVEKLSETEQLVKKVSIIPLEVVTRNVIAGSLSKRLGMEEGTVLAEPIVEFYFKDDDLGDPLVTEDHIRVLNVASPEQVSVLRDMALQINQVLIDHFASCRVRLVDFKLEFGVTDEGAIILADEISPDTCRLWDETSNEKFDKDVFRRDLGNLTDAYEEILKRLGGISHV", "format": "binding", "details": "read-out: KD PurC (control)"}, "[3]": {"test_system": "vanA containing VRSA strain VRS2", "details": "cited from earlier work"}, "[4]": {"test_system": "vanA containing VRSA strain VRS1", "details": "cited from earlier work"}, "[5]": {"test_system": "vancomycin intermediate resistant Staphylococcus aureus strain, VISA 2283", "details": "cited from earlier work"}, "VraR": {"target": "VraR (Staphylococcus aureus, UniProt Q7A4R9)", "sequence (Q7A4R9 whole entry)": "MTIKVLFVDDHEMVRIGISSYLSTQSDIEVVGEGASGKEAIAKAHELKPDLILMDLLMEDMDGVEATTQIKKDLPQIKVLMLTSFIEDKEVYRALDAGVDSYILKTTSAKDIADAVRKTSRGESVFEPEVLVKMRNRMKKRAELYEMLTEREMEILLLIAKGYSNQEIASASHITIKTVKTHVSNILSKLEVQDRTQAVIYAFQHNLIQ", "assay": "biochemical", "format": "binding", "details": "His-tagged VraR; NB = No Binding"}, "[6]": {"test_system": "hetero VISA isolate, hVISA 2275", "details": "cited from earlier work"}, "923 containing pPvra-lux": {"test_system": "923 containing pPvra-lux", "assay": "Oxacillin MIC of test strain in 96-well format", "format": "cell-based, Staphylococcus aureus"}, "multiple strains of MRSA": {"test_system": "multiple strains of MRSA", "assay": "MICs (minimal inhibitory concentrations) vs multiple strains of MRSA", "format": "cell-based, Staphylococcus aureus", "details": "no compound"}, "strain 923 [7]": {"test_system": "strain 923", "assay": "Oxacillin MIC of strain 923", "format": "cell-based", "details": "Staphylococcus aureus; strain 923, cultured in the 96-well format"}, "strain 923 [8]": {"test_system": "strain 923", "details": "strain 923, CLSI guidelines; cited from earlier work"}, "[9]": {"test_system": "vraSR expression (Pvra-lux reporter in strain 923)", "assay": "Validation of test strain: oxacillin induction of luminescence", "format": "cell-based, Staphylococcus aureus", "details": "luminescence of 923 Pvra-lux, 2 hours"}}, "data": [{"smiles": "Cc1cc(/C=C/c2ccc3cc(N(C)C)ccc3[n+]2C)c(C)n1-c1ccccc1", "note": "[Pyr, Pyrvinium]", "values": [{"measurement": "binding to VraS-C", "setting": "[1]; SPR", "result": "binds"}, {"measurement": "RUmax VraS", "setting": "[1]; new run with His-tagged VraS", "result": "46.5 ± 2.9"}, {"measurement": "Kd", "setting": "[1]; new run with His-tagged VraS, NB = No Binding, read-out: KD VraS", "result": "21.3 ± 3.6", "unit": "µM"}, {"measurement": "Kd", "setting": "[2]", "result": "> 100", "unit": "µM"}, {"measurement": "Synergy category", "setting": "[3]", "result": "synergistic (An FICi of ≦0.5 defines a synergistic interaction)"}, {"measurement": "potentiation of vancomycin", "setting": "[3]", "result": "fully potentiated"}, {"measurement": "MIC compound (Clo, Pyr, Gos)", "setting": "[3]; compound alone", "result": 1.12, "unit": "mg/L"}, {"measurement": "fold decrease Van MIC", "setting": "[4]", "result": 64, "unit": "fold"}, {"measurement": "potentiation of vancomycin", "setting": "[4]", "result": "fully potentiated"}, {"measurement": "MIC compound (Clo, Pyr, Gos)", "setting": "[4]; compound alone", "result": 2.24, "unit": "mg/L"}, {"measurement": "Synergy category", "setting": "[5]; VISA 2283", "result": "non syn"}, {"measurement": "potentiation of vancomycin", "setting": "[5]; VISA", "result": "not"}, {"measurement": "Kd", "setting": "VraR", "result": "> 100", "unit": "µM"}, {"measurement": "MIC (in combination) Clo+, Pyr+, Gos+", "setting": "[6]; MIC of the compound in combination with the indicated Van concentration, hVISA 2275", "result": 0.56, "unit": "mg/L"}, {"measurement": "MIC compound (Clo, Pyr, Gos)", "setting": "[6]; compound alone, hVISA 2275", "result": 16, "unit": "mg/L"}, {"measurement": "FICi V + compound", "setting": "[6]; hVISA 2275", "result": 0.54}, {"measurement": "Synergy category", "setting": "[6]; hVISA 2275", "result": "partial (partially potentiated vancomycin (FIC i>0.5 and <1.0))"}, {"measurement": "fold decrease Van MIC", "setting": "[6]; hVISA 2275", "result": 2, "unit": "fold"}, {"measurement": "potentiation of vancomycin", "setting": "[6]; hVISA", "result": "partially potentiated"}, {"measurement": "Van FIC", "setting": "[6]; in combination with compound, hVISA 2275", "result": 0.50}, {"measurement": "Clo FIC, Pyr FIC, Gos FIC", "setting": "[6]; in combination with vancomycin, hVISA 2275", "result": 0.04}, {"measurement": "MIC (in combination) Van+", "setting": "[6]; vancomycin MIC when used in combination with compound, hVISA 2275", "result": 2, "unit": "mg/L"}]}, {"smiles": "Cc1onc(-c2ccccc2)c1C(=O)N[C@@H]1C(=O)N2[C@@H]1SC(C)(C)[C@@H]2C(=O)O", "note": "[oxacillin, reference compound]", "values": [{"measurement": "MIC of oxacillin", "setting": "923 containing pPvra-lux", "result": 5, "unit": "µg/mL"}, {"measurement": "Ox MIC alone", "setting": "multiple strains of MRSA; isolate 923, SCCmec IV, ST 8", "result": 16, "unit": "mg/L"}, {"measurement": "Ox MIC alone", "setting": "multiple strains of MRSA; isolate 1176, SCCmec II, ST 231", "result": 32, "unit": "mg/L"}, {"measurement": "Ox MIC alone", "setting": "multiple strains of MRSA; isolate 2169, SCCmec IV, ST 72", "result": 16, "unit": "mg/L"}, {"measurement": "Ox MIC alone", "setting": "multiple strains of MRSA; isolate 8004-01, SCCmec III, ST 239", "result": 256, "unit": "mg/L"}, {"measurement": "Ox MIC alone", "setting": "multiple strains of MRSA; isolate 8010-01, SCCmec IV, ST 8", "result": 16, "unit": "mg/L"}, {"measurement": "Ox MIC alone", "setting": "multiple strains of MRSA; isolate 8227-01, SCCmec IV, ST 87", "result": 2, "unit": "mg/L"}, {"measurement": "Ox MIC alone", "setting": "multiple strains of MRSA; isolate 11095, SCCmec II, ST 105", "result": 256, "unit": "mg/L"}, {"measurement": "Ox MIC alone", "setting": "multiple strains of MRSA; isolate 13113, SCCmec II, ST 5", "result": 16, "unit": "mg/L"}, {"measurement": "Ox MIC alone", "setting": "multiple strains of MRSA; isolate 13354, SCCmec IV, ST 5", "result": 8, "unit": "mg/L"}, {"measurement": "Ox MIC alone", "setting": "multiple strains of MRSA; isolate 14315, SCCmec IV, ST 1", "result": 32, "unit": "mg/L"}, {"measurement": "Ox MIC alone", "setting": "multiple strains of MRSA; isolate Q2461, SCCmec VT, ST 59", "result": 8, "unit": "mg/L"}, {"measurement": "MIC", "setting": "strain 923 [7]", "result": 8, "unit": "µg/mL"}, {"measurement": "24-h oxacillin MIC", "setting": "strain 923 [8]", "result": "16 to 32", "unit": "µg/mL"}, {"measurement": "minimum concentration sufficient for maximal vraSR expression", "setting": "[9]", "result": 2, "unit": "µg/mL"}]}]}
